Laboratory results from the NIST ThermoML archive (doi:10.1016/j.jct.2013.10.025).
± gives the expanded uncertainty stated by the source.

Test: xn = mol fraction of the nth substance listed
Settings: 101 kPa, Liquid; for mass density: Vibrating tube method; for viscosity: Capillary tube (Ostwald / Ubbelohde) method; for speed of sound: Sing-around technique in a fixed-path interferometer

C1CCOC1 [tetrahydrofuran] + CCCCCCCCO
Settings | mass density, 303.15 K [kg/m3] | mass density, 308.15 K [kg/m3] | mass density, 313.15 K [kg/m3] | speed of sound, 308.15 K [m/s] | speed of sound, 313.15 K [m/s] | viscosity, 308.15 K [mPa·s]
x1 = 0.0541 | – | 816.44 ± 0.24 | 812.862 ± 0.24 | 1310.7 ± 1.5 | 1294.2 ± 1.5 | 4.208 ± 0.36
x1 = 0.1044 | – | 817.948 ± 0.24 | 814.315 ± 0.24 | 1307.3 ± 1.5 | 1290.6 ± 1.5 | 3.709 ± 0.36
x1 = 0.1535 | – | 819.488 ± 0.24 | 815.803 ± 0.24 | 1303 ± 1.5 | 1286.2 ± 1.5 | 3.217 ± 0.36
x1 = 0.205 | – | 821.202 ± 0.24 | 817.465 ± 0.24 | 1298.8 ± 1.5 | 1282 ± 1.5 | 2.779 ± 0.36
x1 = 0.2574 | – | 823.029 ± 0.24 | 819.222 ± 0.24 | 1294.7 ± 1.5 | 1277.6 ± 1.5 | 2.46 ± 0.36
x1 = 0.3054 | – | 824.796 ± 0.24 | 820.932 ± 0.24 | 1290.9 ± 1.5 | 1273.8 ± 1.5 | 2.176 ± 0.36
x1 = 0.4003 | 832.585 ± 0.24 | 828.614 ± 0.24 | 824.625 ± 0.24 | 1283.1 ± 1.5 | 1265.5 ± 1.5 | 1.748 ± 0.36
x1 = 0.5004 | 837.343 ± 0.24 | 833.216 ± 0.24 | 829.064 ± 0.24 | 1274.6 ± 1.5 | 1256.5 ± 1.5 | 1.348 ± 0.36
x1 = 0.6111 | 843.471 ± 0.24 | 839.116 ± 0.24 | 834.743 ± 0.24 | 1264.1 ± 1.5 | 1245.4 ± 1.5 | 1.014 ± 0.36
x1 = 0.7032 | 849.444 ± 0.24 | 844.874 ± 0.24 | 840.294 ± 0.24 | 1255.2 ± 1.5 | 1236.1 ± 1.5 | 0.819 ± 0.36
x1 = 0.8116 | 857.718 ± 0.24 | 852.874 ± 0.24 | 848 ± 0.24 | 1244.9 ± 1.5 | 1225 ± 1.5 | 0.632
x1 = 0.9048 | 866.235 ± 0.23 | 861.083 ± 0.24 | 855.903 ± 0.24 | 1237 ± 1.5 | 1216.3 ± 1.5 | 0.514
